What was measured:
Assay in all cases: relative viability (nuclei count vs DMSO), 5 days (fraction); higher = more cells survive
Gemcitabine + Navitoclax = compound: Nc1ccn([C@@H]2O[C@H](CO)[C@@H](O)C2(F)F)c(=O)n1 [Gemcitabine] + CC1(C)CCC(c2ccc(Cl)cc2)=C(CN2CCN(c3ccc(C(=O)NS(=O)(=O)c4ccc(N[C@H](CCN5CCOCC5)CSc5ccccc5)c(S(=O)(=O)C(F)(F)F)c4)cc3)CC2)C1 [Navitoclax] (partner 0.5 µM)
In short: (§1)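 A single step with final 0.05% Triton X-100, 1% formaldehyde and 1 ug/ml Hoechst fixed the cells and stained nuclei 5 days after treatment. Lung cancer cell lines in 1536-well plates had been treated by pin tool the day after seeding with one drug alone or a fixed anchor-drug dose plus five library-drug doses (not always all listed) in √10 steps, and nuclei were counted on 4× images. Relative viability is the ratio of nuclei in treated wells to nuclei in vehicle wells, taken as the median of duplicate plates.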

Gemcitabine + Vorinostat = compound: Nc1ccn([C@@H]2O[C@H](CO)[C@@H](O)C2(F)F)c(=O)n1 [Gemcitabine] + O=C(CCCCCCC(=O)Nc1ccccc1)NO [Vorinostat] (partner 1 µM)
In short: as §1

Gemcitabine + Pemetrexed = compound: Nc1ccn([C@@H]2O[C@H](CO)[C@@H](O)C2(F)F)c(=O)n1 [Gemcitabine] + Nc1nc2[nH]cc(CCc3ccc(C(=O)N[C@@H](CCC(=O)O)C(=O)O)cc3)c2c(=O)[nH]1 [Pemetrexed] (partner 0.2 µM)
In short: as §1

Gemcitabine + Linsitinib = compound: Nc1ccn([C@@H]2O[C@H](CO)[C@@H](O)C2(F)F)c(=O)n1 [Gemcitabine] + C[C@]1(O)C[C@@H](c2nc(-c3ccc4ccc(-c5ccccc5)nc4c3)c3c(N)nccn32)C1 [Linsitinib] (partner 1 µM)
In short: as §1

| Cell Line | relative viability (Gemcitabine + Navitoclax; first compound 0.001 µM) | relative viability (Gemcitabine + Navitoclax; first compound 0.003162 µM) | relative viability (Gemcitabine + Navitoclax; first compound 0.01 µM) | relative viability (Gemcitabine + Navitoclax; first compound 0.03162 µM) | relative viability (Gemcitabine + Navitoclax; first compound 0.1 µM) | relative viability (Gemcitabine + Vorinostat; first compound 0.001 µM) | relative viability (Gemcitabine + Vorinostat; first compound 0.003162 µM) | relative viability (Gemcitabine + Vorinostat; first compound 0.01 µM) | relative viability (Gemcitabine + Vorinostat; first compound 0.03162 µM) | relative viability (Gemcitabine + Vorinostat; first compound 0.1 µM) | relative viability (Gemcitabine + Pemetrexed; first compound 0.001 µM) | relative viability (Gemcitabine + Pemetrexed; first compound 0.003162 µM) | relative viability (Gemcitabine + Pemetrexed; first compound 0.01 µM) | relative viability (Gemcitabine + Pemetrexed; first compound 0.03162 µM) | relative viability (Gemcitabine + Pemetrexed; first compound 0.1 µM) | relative viability (Gemcitabine + Linsitinib; first compound 0.001 µM) | relative viability (Gemcitabine + Linsitinib; first compound 0.003162 µM) | relative viability (Gemcitabine + Linsitinib; first compound 0.01 µM) | relative viability (Gemcitabine + Linsitinib; first compound 0.03162 µM) | relative viability (Gemcitabine + Linsitinib; first compound 0.1 µM) |
| --- | --- | --- | --- | --- | --- | --- | --- | --- | --- | --- | --- | --- | --- | --- | --- | --- | --- | --- | --- | --- |
| 201T | 1.17 | 1.24 | 1.24 | 1.19 | 0.494 | 0.999 | 1.04 | 0.93 | 0.43 | 0.253 | 0.291 | 0.327 | 0.288 | 0.254 | 0.286 | 1.07 | 1.06 | 1.06 | 0.663 | 0.339 |
| A-427 | 0.918 | 0.907 | 0.719 | 0.189 | 0.124 | 0.826 | 0.857 | 0.671 | 0.321 | 0.284 | 0.986 | 0.93 | 0.851 | 0.351 | 0.249 | 1.06 | 1.03 | 0.895 | 0.209 | 0.138 |
| ABC-1 | – | – | – | – | – | – | 1.26 | 1.06 | 0.303 | 0.256 | – | – | – | – | – | 0.92 | 1.01 | 0.689 | 0.286 | 0.243 |
| BEN | 0.0578 | 0.0698 | 0.0605 | 0.0528 | 0.0444 | 0.653 | 0.55 | 0.309 | 0.253 | 0.331 | 0.774 | 0.417 | 0.277 | 0.164 | 0.223 | 1.07 | 0.653 | 0.255 | 0.11 | 0.0904 |
| CAL-12T | 1.14 | 1.1 | 0.845 | 0.164 | 0.141 | 0.864 | 0.744 | 0.715 | 0.272 | 0.178 | 1.38 | 1.07 | 1.04 | 0.286 | 0.156 | 0.777 | 0.859 | 0.567 | 0.256 | 0.169 |
| COR-L23 | 0.951 | 0.96 | 0.381 | 0.0768 | 0.0895 | 0.486 | 0.347 | 0.092 | 0.0851 | 0.1 | 0.198 | 0.19 | 0.19 | 0.14 | 0.129 | 1.19 | 0.954 | 0.467 | 0.0831 | 0.0803 |
| COR-L 105 | 0.792 | 0.581 | 0.544 | 0.291 | 0.263 | 0.82 | 0.726 | 0.56 | 0.336 | 0.27 | 1.32 | 1.01 | 0.895 | 0.37 | 0.282 | 0.88 | 0.734 | 0.6 | 0.278 | 0.269 |
| Calu-6 | 0.789 | 0.317 | 0.111 | 0.0922 | 0.0731 | – | – | – | – | – | – | – | – | – | – | 0.948 | 0.618 | 0.234 | 0.129 | 0.0919 |
| ChaGo-K-1 | 0.939 | 0.443 | 0.361 | 0.26 | 0.266 | 0.772 | 0.68 | 0.301 | 0.201 | 0.177 | 0.247 | 0.23 | 0.23 | 0.209 | 0.183 | – | – | – | – | – |
| EKVX | 0.93 | 0.89 | 0.0897 | 0.133 | 0.0934 | 0.747 | 0.686 | 0.618 | 0.27 | 0.217 | 0.351 | 0.333 | 0.133 | 0.151 | 0.14 | 1.07 | 0.727 | 0.541 | 0.188 | 0.118 |
| EMC-BAC-2 | 1.21 | 1.17 | 1.11 | 0.147 | 0.136 | 0.343 | 0.402 | 0.234 | 0.148 | 0.198 | 0.439 | 0.454 | 0.389 | 0.27 | 0.292 | 0.797 | 0.822 | 0.751 | 0.191 | 0.154 |
| EPLC-272H | 1.14 | 0.953 | 0.395 | 0.0915 | 0.07 | 0.25 | 0.29 | 0.254 | 0.112 | 0.056 | 0.316 | 0.33 | 0.132 | 0.178 | 0.108 | 1.21 | 1.18 | 0.883 | 0.673 | 0.0949 |
| H3255 | 0.558 | 0.404 | 0.135 | 0.121 | 0.106 | 0.834 | 0.848 | 0.289 | 0.296 | 0.251 | 0.565 | 0.519 | 0.591 | 0.335 | 0.224 | 0.954 | 0.644 | 0.762 | 0.233 | 0.145 |
| HARA | 1.15 | 1.17 | 1.1 | 0.289 | 0.0674 | 0.497 | 0.538 | 0.444 | 0.0835 | 0.0515 | 0.272 | 0.263 | 0.236 | 0.196 | 0.0974 | 1.05 | 1.01 | 0.832 | 0.293 | 0.0949 |
| HCC-15 | 0.718 | 0.702 | 0.69 | 0.441 | 0.0936 | 0.908 | 0.815 | 0.739 | 0.247 | 0.109 | 0.224 | 0.226 | 0.226 | 0.229 | 0.109 | 0.981 | 0.893 | 0.848 | 0.217 | 0.0888 |
| HCC-44 | 0.97 | 0.993 | 0.893 | 0.173 | 0.154 | 1.1 | 1.13 | 1.04 | 0.651 | 0.418 | 0.634 | 0.68 | 0.66 | 0.632 | 0.63 | 0.628 | 0.672 | 0.589 | 0.166 | 0.143 |
| HCC-78 | 0.795 | 0.428 | 0.191 | 0.119 | 0.104 | 0.405 | 0.276 | 0.215 | 0.225 | 0.23 | 0.92 | 0.879 | 0.895 | 0.9 | 0.896 | 0.532 | 0.347 | 0.199 | 0.189 | 0.154 |
